According to ChEMBL document CHEMBL1155186, “O-Spiro C-aryl glucosides as novel sodium-dependent glucose co-transporter 2 (SGLT2) inhibitors” (Bioorg Med Chem Lett, 2009):

Key:
[1] = biological target: T1, Sodium/glucose cotransporter 2 (Homo sapiens) (UniProt P31639); conditions: 10 nM
T1 sequence (whole entry): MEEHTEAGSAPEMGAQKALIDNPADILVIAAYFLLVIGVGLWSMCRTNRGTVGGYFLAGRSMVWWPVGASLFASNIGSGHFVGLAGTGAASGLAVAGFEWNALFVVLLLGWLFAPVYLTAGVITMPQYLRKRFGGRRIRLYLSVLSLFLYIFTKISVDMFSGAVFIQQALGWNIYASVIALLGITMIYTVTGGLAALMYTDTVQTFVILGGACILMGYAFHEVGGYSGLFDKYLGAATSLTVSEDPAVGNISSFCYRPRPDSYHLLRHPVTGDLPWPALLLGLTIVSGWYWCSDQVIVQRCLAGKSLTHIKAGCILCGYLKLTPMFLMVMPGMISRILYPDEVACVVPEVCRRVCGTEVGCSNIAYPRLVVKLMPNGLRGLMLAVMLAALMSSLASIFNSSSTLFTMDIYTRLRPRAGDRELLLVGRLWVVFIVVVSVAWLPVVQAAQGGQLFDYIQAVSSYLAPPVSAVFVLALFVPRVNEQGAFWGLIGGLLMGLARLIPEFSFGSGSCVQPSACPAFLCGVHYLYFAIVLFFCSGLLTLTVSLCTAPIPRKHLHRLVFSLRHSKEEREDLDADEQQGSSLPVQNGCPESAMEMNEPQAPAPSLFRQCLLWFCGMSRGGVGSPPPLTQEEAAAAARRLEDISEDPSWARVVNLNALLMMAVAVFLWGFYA
Description: Inhibition of human SGLT2 expressed in HEK293.ETN cells assessed as methyl-alpha-D-[U-14C]glucopyranoside uptake at 10 nM by scintillation counting

[2] = biological target: T2, Sodium/glucose cotransporter 1 (Homo sapiens) (UniProt P13866); conditions: COS-7, 10 uM
T2 sequence (whole entry): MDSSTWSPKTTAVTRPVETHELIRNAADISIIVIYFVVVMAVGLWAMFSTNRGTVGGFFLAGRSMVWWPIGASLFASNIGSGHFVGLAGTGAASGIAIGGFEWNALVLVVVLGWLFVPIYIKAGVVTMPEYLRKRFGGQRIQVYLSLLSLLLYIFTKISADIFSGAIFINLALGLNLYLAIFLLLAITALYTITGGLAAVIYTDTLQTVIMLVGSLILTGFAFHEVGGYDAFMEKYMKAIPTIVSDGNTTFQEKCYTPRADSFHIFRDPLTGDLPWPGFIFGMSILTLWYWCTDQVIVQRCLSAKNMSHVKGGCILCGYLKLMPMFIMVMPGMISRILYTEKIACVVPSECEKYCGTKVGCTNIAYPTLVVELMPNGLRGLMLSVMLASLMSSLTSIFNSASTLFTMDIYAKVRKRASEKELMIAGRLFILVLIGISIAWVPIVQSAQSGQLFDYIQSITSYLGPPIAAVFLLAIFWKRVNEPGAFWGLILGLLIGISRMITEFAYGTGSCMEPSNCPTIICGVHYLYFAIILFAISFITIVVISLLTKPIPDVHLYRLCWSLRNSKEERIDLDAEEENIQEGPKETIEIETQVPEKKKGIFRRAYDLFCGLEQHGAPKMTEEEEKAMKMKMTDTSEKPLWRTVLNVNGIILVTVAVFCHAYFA
Description: Inhibition of human SGLT1 expressed in african green monkey COS7 cells assessed as methyl-alpha-D-[U-14C]glucopyranoside uptake at 10 uM by scintillation counting

inhibition [1]: 69.7% | inhibition [2]: 72.7%
Structure (SMILES): CCOc1ccc(Cc2cc([C@@H]3O[C@H](CO)[C@@H](O)[C@H](O)[C@H]3O)ccc2Cl)cc1
